# Results reported in ChEMBL document CHEMBL1201862, “PubChem BioAssay data set” (2004).
# Calls of active or inactive are those of the source.
# Columns and labels:
# [1] = target: RNA-editing ligase 1, mitochondrial (Trypanosoma brucei brucei, UniProt P86926); assay: inhibition of trypanosome RNA editing ligase – biochemical, fluorescence, Trypanosoma brucei, dose response (AID 1117295); type: functional
# Nonstructural protein 1 = Nonstructural protein 1 (Influenza A virus, UniProt Q194T2); type: functional, Influenza A virus (A/California/07/2009(H1N1))
# Chain of Nonstructural protein 1 (Q194T2 whole entry): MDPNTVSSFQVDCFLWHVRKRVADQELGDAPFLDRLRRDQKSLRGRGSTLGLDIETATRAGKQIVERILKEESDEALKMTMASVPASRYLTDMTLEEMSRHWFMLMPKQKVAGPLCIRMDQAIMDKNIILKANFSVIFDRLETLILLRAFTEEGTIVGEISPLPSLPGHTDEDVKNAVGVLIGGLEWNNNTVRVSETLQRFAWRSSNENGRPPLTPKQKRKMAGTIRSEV
# Vero = assay: Vero E6 cell cytotoxicity, dose response, cytotoxicity control (AID 540298); type: functional; conditions: Chlorocebus sabaeus
# MDCK [2] = assay: antiviral activity against H1N1 influenza, dose response, cell-based, strain KY180 (AID 540254); type: functional; conditions: Canis lupus familiaris
# MDCK [3] = assay: MDCK cell cytotoxicity, dose response, cytotoxicity control (AID 540296); type: functional; conditions: Canis lupus familiaris
# Caspase-3 [4] = target: T1, Caspase-3 (Homo sapiens, UniProt P42574); assay: SAR Analysis of small molecule inhibitors of Sentrin-specific proteases (SENPs) using a Caspase-3 Selectivity assay. [Related pubchem assays (depositor defined):AID2540, AID2599, AID434973, AID489001]; type: functional
# T1 sequence (P42574 whole entry): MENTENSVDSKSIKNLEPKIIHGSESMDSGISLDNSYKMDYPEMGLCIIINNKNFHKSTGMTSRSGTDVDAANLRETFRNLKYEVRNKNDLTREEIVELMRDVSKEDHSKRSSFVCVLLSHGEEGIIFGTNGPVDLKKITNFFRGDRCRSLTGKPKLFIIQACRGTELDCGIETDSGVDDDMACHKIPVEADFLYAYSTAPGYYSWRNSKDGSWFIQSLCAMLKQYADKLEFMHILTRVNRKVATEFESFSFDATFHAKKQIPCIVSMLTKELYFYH
# [5] = target: T2, Sentrin-specific protease 8 (Homo sapiens, UniProt Q96LD8); assay: inhibition of sentrin protease 8 – biochemical, luminescence, set 2, SAR follow-up (AID 588601); type: functional
# T2 sequence (Q96LD8 whole entry): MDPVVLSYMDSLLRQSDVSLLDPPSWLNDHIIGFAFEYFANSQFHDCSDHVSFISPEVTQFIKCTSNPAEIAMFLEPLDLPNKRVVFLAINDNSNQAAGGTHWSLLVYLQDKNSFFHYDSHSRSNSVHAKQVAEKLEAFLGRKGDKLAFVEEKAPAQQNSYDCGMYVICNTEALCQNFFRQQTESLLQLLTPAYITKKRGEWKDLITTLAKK
# Caspase-3 [6] = target: T1, Caspase-3; assay: inhibition of recombinant caspase-3 activity – biochemical, luminescence, set 2, selectivity assay for SENP protease inhibitor project, SAR follow-up (AID 588599); type: functional
# [7] = target: T2, Sentrin-specific protease 8; assay: inhibition of human SENP8 cleavage activity – biochemical, luminescence, SAR follow-up (AID 504501); type: functional
# [8] = target: T3, Sentrin-specific protease 6 (Homo sapiens, UniProt Q9GZR1); assay: SAR Analysis of small molecule inhibitors of Sentrin-specific protease 6 (SENP6) using a Luminescent assay. [Related pubchem assays (depositor defined):AID2582, AID2599]; type: functional
# T3 sequence (Q9GZR1 whole entry): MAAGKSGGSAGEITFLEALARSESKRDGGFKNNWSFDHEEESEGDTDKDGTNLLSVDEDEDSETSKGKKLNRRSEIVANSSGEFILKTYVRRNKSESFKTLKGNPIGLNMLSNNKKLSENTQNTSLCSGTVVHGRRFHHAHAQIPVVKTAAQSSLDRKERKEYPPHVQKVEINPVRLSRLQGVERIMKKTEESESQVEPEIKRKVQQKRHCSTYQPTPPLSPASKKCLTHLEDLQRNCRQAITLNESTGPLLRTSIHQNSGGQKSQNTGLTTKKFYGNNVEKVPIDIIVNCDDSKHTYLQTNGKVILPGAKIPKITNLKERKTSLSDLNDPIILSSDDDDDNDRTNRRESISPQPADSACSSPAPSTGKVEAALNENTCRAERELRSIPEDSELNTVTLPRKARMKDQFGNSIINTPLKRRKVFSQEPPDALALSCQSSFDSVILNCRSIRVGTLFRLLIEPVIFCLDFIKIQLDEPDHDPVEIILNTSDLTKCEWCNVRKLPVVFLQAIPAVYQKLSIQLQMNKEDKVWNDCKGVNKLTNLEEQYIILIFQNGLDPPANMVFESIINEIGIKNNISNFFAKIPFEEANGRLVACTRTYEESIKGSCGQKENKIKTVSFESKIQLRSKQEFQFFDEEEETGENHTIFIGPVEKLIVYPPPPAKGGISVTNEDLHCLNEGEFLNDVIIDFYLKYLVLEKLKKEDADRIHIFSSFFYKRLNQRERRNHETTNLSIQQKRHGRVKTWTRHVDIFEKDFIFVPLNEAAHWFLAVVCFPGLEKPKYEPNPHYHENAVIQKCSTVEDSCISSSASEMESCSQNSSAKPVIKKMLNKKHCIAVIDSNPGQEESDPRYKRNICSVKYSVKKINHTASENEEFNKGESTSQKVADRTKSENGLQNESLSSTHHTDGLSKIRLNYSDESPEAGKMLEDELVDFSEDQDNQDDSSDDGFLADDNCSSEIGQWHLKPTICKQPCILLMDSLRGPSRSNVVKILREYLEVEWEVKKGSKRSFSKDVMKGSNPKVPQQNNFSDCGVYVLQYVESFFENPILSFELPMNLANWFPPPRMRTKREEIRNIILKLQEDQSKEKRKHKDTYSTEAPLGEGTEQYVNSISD
# [9] = target: T3, Sentrin-specific protease 6; assay: inhibition of human SENP6 catalytic domain – biochemical, luminescence, set 2, SAR follow-up (AID 588598); type: functional
# [10] = target: T4, Sentrin-specific protease 7 (Homo sapiens, UniProt Q9BQF6); assay: inhibition of human SENP7 cleavage activity – biochemical, luminescence, set 2, SAR follow-up (AID 588600); type: functional
# T4 sequence (Q9BQF6 whole entry): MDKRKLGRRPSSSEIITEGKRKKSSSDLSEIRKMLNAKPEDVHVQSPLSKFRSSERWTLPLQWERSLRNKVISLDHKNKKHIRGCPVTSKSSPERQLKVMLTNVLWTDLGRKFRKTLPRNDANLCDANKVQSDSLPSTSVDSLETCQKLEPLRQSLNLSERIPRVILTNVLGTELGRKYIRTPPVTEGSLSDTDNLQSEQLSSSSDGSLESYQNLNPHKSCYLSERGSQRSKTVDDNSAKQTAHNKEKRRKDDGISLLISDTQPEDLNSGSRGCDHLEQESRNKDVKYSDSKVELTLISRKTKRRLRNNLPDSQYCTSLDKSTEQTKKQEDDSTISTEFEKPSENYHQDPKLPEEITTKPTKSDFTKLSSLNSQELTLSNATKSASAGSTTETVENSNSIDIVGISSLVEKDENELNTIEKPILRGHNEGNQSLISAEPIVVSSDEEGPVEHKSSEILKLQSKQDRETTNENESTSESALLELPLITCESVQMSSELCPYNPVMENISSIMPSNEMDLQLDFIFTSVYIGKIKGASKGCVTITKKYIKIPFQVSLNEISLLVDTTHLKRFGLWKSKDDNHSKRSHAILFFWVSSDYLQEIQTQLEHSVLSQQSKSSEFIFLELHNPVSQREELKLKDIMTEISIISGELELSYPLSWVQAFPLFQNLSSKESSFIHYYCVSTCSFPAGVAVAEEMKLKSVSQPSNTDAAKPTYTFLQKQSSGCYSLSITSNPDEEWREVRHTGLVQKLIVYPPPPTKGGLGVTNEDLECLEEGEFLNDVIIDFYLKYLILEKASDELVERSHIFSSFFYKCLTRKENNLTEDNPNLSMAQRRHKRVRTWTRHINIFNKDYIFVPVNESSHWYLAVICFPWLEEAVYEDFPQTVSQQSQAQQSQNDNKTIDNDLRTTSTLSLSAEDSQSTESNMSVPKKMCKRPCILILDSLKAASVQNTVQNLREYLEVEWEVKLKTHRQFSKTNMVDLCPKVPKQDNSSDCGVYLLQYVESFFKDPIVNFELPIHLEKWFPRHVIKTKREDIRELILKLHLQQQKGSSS
# [11] = target: T4, Sentrin-specific protease 7; assay: inhibition of human SENP7 cleavage activity – biochemical, luminescence, SAR follow-up (AID 504497); type: functional
# [12] = blockers of SFLLRN-triggered platelet ATP secretion – cell-based, human platelets, luminescence, dry powder, dose response (AID 493100); type: functional
# [13] = Luminescence Cell-Based Dose Response Follow up to Identify Inhibitors of Platelet Dense Granule Release. [Related pubchem assays (depositor defined):AID1663, AID1678, AID2398]; type: functional
# [14] = target: Beta-adrenergic receptor kinase 1 (Homo sapiens, UniProt P25098); assay: aptamer displacement from bead-bound GRK2 – biochemical, cherry pick 1, bead flow cytometry, dose response (AID 504500)
# Chain of Beta-adrenergic receptor kinase 1 (P25098 whole entry): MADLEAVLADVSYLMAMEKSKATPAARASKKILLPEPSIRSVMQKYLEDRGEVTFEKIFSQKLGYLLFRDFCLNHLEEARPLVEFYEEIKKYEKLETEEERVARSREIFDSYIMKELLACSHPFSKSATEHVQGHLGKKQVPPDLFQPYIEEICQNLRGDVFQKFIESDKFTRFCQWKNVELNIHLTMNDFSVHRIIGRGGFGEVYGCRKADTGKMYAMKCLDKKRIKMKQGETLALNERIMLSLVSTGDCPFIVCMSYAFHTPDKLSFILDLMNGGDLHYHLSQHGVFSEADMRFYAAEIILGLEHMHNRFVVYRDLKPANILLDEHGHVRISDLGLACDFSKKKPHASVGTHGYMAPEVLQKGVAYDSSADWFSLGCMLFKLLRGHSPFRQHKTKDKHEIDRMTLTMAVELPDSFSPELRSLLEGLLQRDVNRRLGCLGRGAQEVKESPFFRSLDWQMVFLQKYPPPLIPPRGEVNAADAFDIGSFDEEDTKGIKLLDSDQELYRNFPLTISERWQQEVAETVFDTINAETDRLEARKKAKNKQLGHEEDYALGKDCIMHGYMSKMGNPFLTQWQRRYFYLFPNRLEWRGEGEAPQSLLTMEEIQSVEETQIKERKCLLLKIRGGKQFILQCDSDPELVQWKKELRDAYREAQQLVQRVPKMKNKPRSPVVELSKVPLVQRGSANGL
# [15] = target: DNA dC->dU-editing enzyme APOBEC-3G (Homo sapiens, UniProt Q9HC16); assay: Dose Response confirmation of small molecule APOBEC3G DNA Deaminase Inhibitors via a fluorescence-based single-stranded DNA deaminase assay. [Related pubchem assays (depositor defined):AID493012, AID493028]; type: functional
# Chain of DNA dC->dU-editing enzyme APOBEC-3G (Q9HC16 whole entry): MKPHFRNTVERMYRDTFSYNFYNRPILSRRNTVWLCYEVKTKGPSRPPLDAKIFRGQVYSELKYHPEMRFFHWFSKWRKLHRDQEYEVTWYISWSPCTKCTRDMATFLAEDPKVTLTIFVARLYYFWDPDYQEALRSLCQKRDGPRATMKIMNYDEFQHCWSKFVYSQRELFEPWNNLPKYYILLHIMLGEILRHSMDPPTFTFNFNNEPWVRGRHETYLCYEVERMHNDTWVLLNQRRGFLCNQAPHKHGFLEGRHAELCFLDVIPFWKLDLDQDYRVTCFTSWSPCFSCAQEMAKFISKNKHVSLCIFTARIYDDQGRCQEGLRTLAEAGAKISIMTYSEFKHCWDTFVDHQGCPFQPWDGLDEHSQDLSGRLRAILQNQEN
# [16] = target: T5, Apoptotic protease-activating factor 1 (Homo sapiens, UniProt O14727); assay: activation of Apaf-1 mediated apoptosis – fluorescent, uHTS hits, dose response (AID 588554); type: functional
# T5 sequence (O14727 whole entry): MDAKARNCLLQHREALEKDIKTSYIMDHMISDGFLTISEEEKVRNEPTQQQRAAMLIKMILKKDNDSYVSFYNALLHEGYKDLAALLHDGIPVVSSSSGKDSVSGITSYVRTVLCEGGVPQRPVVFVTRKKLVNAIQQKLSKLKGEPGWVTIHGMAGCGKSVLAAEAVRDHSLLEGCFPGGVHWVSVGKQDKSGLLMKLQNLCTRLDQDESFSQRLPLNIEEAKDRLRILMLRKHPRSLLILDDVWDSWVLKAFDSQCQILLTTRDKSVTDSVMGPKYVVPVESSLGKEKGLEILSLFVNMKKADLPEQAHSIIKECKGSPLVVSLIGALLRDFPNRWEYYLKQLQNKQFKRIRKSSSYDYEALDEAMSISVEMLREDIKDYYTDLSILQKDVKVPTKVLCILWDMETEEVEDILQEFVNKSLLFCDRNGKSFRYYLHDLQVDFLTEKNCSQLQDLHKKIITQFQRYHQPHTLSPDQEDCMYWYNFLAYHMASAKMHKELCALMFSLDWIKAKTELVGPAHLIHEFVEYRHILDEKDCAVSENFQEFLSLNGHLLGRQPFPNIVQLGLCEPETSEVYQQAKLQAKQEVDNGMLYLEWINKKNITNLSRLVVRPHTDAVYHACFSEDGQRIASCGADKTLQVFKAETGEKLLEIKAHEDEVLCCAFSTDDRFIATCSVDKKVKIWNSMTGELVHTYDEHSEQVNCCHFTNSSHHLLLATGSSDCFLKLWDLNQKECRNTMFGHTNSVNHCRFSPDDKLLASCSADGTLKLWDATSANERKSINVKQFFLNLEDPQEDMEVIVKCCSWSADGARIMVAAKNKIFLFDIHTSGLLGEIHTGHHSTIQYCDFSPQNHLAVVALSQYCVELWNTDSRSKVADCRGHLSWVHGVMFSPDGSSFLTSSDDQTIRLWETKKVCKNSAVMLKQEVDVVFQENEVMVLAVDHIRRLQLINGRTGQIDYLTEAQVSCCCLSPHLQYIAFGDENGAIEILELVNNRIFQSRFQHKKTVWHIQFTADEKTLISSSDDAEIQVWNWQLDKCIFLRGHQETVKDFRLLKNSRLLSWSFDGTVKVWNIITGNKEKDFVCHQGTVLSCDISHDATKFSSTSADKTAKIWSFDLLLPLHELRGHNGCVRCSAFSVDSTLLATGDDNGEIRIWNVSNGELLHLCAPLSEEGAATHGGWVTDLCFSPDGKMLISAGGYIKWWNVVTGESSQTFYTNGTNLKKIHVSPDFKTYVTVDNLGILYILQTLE
# [17] = target: Induced myeloid leukemia cell differentiation protein Mcl-1 (Homo sapiens, UniProt Q07820); type: functional
# Chain of Induced myeloid leukemia cell differentiation protein Mcl-1 (Q07820 whole entry): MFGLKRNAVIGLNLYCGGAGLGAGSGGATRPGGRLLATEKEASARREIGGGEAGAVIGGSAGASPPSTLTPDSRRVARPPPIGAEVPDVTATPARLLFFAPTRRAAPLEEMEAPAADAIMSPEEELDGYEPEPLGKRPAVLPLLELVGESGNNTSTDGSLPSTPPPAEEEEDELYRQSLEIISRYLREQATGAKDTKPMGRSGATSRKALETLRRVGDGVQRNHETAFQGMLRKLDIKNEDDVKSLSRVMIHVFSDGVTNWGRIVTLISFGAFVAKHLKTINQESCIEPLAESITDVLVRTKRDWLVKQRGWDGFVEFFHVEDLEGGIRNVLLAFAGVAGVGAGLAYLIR
# [18] = target: T6, Small ubiquitin-related modifier 1 (Homo sapiens, UniProt P63165); assay: SUMO1 protein interaction blockers, potency – biochemical, fluorescence polarization, uHTS hits, dose response (AID 624382); type: functional; conditions: read-out: IC50_Mean
# T6 sequence (P63165 whole entry, the tested form may be a part): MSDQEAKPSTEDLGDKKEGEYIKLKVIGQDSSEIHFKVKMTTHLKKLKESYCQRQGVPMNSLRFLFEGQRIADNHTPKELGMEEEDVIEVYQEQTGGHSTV
# [19] = target: T7, Carboxy-terminal domain RNA polymerase II polypeptide A small phosphatase 1 (Homo sapiens, UniProt Q9GZU7); assay: CTDSP1 inhibitors, concentration-response, biochemical, absorbance readout, ultra-high-throughput screen actives (AID 540297); type: functional
# T7 sequence (Q9GZU7 whole entry): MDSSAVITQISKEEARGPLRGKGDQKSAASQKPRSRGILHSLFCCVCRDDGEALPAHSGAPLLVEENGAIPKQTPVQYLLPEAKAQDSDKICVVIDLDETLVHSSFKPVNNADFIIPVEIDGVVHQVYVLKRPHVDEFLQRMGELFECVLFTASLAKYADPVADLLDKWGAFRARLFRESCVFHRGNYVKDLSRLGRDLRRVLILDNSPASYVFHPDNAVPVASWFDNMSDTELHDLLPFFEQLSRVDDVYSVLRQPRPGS
# [20] = target: DNA dC->dU-editing enzyme APOBEC-3A (Homo sapiens, UniProt P31941); assay: A3A deaminase inhibition for selectivity – biochemical, dose response (AID 504722); type: functional
# Chain of DNA dC->dU-editing enzyme APOBEC-3A (P31941 whole entry): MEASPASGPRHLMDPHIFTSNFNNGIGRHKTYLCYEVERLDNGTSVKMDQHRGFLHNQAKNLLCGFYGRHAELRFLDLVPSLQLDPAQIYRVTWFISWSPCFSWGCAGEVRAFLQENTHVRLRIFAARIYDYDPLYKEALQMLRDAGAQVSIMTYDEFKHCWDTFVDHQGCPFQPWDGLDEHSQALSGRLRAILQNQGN
# [21] = target: T6, Small ubiquitin-related modifier 1; assay: SUMO1 protein-protein binding blockers, potency – biochemical, FRET, dose response (AID 624383); type: functional; conditions: read-out: IC50_Mean
# Chain of RNA-editing ligase 1, mitochondrial (P86926 whole entry): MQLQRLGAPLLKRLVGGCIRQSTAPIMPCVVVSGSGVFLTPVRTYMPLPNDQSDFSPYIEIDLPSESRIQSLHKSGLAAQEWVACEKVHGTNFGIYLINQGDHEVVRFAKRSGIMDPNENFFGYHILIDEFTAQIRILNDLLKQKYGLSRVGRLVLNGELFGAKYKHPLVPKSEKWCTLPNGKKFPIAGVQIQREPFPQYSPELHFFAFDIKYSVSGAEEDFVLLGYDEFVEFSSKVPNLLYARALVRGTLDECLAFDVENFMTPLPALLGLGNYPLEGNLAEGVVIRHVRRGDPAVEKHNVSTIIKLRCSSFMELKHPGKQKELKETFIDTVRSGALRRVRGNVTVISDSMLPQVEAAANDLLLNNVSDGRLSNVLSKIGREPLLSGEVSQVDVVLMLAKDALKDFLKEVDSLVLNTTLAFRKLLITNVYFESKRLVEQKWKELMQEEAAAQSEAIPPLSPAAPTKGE
structure (smiles),measurement,setting,value
CCN(c1ccccc1)S(=O)(=O)c1ccc(C(=O)N(CCCN(C)C)c2nc3c(C)cccc3s2)cc1,IC50,[1],> 96.6 µM (inactive)
same,IC50,Nonstructural protein 1,> 100 µM (active)
same,CC50,Vero,16 µM (active)
same,IC50,MDCK [2],> 100 µM (active)
same,CC50,MDCK [3],10.8 µM (active)
COc1cc(/C=C/c2noc(-c3ccccc3O)n2)ccc1OCC(=O)O,IC50,Caspase-3 [4],54 µM (active)
same,IC50,[5],46.3 µM (active)
same,IC50,Caspase-3 [6],28.2 µM (active)
same,IC50,[7],> 99 µM (inactive)
same,IC50,[8],> 99 µM (inactive)
same,IC50,[9],21.9 µM (active)
same,IC50,[10],72.3 µM (active)
same,IC50,[11],18 µM (active)
CCCCC(=O)N/N=C(\C)c1ccc(NC(=O)C(F)(F)F)cc1,AC50,[12],41.3 µM (active)
same,EC50,[13],5.49 µM (active)
C=C(C)C(=O)Nc1cccc(C2=NOC3(C2)C[C@H](C(N)=O)N(C(=O)/C=C/C)C3)c1 (stereo partly drawn),EC50,[14],21.3 µM (inactive)
same,IC50,[15],6.14 µM (active)
same,EC50,[16],2.71 µM (active)
same,IC50,[17],3.48 µM (active)
same,IC50,[18],> 66.6 µM (inactive)
same,IC50,[19],1.61 µM (active)
same,IC50,[20],> 100 µM (inactive)
same,IC50,[21],1.93 µM (active)
